Test results: patent publication US9359352B2, “Substituted benzimidazoles as PI3 kinase inhibitors” (Intellikine LLC, priority 2010, dated 2016)
Where two headings read alike, the source gives them in different places.

How the values were obtained:
Format in all cases: biochemical
PI3K α = molecular target: T1, PI3K α (Homo sapiens, UniProt P42336); assay: PI 3-Kinase HTRF inhibition assay, PI3K α
T1 construct: purchased Upstate
Protocol: (§1) Commercial kits or systems for assaying PI3-K activities are available. The commercially available kits or systems can be used to screen for inhibitors and/or agonists of PI3-Ks including but not limited to PI 3-Kinase α, β, δ, and γ. An exemplary system is PI 3-Kinase (human) HTRF™ Assay from Upstate. […] Briefly, the assay is a time resolved FRET assay that indirectly measures PIP3 product formed by the activity of a PI3-K. The kinase reaction is performed in a microtitre plate (e.g., a 384 well microtitre plate). The total reaction volume is approximately 20 ul per well. In the first step, each well receives 2 ul of test compound in 20% dimethylsulphoxide resulting in a 2% DMSO final concentration. Next, approximately 14.5 ul of a kinase/PIP2 mixture (diluted in 1× reaction buffer) is added per well for a final concentration of 0.25-0.3 ug/ml kinase and 10 μM PIP2. The plate is scaled and incubated for 15 minutes at room temperature. To start the reaction, 3.5 ul of ATP (diluted in 1× reaction buffer) is added per well for a final concentration of 10 μM ATP. The plate is sealed and incubated for 1 hour at room temperature. The reaction is stopped by adding 5 ul of Stop Solution per well and then 5 ul of Detection Mix is added per well. The plate is sealed, incubated for 1 hour at room temperature, and then read on an appropriate plate reader. Data is analyzed and IC50s are generated using GraphPad Prism 5. For PI3K α, β, δ, and γ, the nM concentration of inhibitor to reach IC50 is provided. […] Similar assays, and others known in the art, can be used to measure the percent inhibition of other kinases, including but not limited to PI3K class II kinases, phosphoinositide 4 kinases (PI4K), and phosphoinositide 5 kinases (PI5K).

PI3K β = molecular target: T2, PI3K β (Homo sapiens, UniProt P42338); assay: PI 3-Kinase HTRF inhibition assay, PI3K β; details: in vitro
T2 construct: purchased Upstate
Protocol: as §1

PI3K δ = molecular target: T3, PI3K δ (Homo sapiens, UniProt O00329); assay: PI 3-Kinase HTRF inhibition assay, PI3K δ
T3 construct: purchased Upstate
Protocol: as §1

PI3K γ = molecular target: T4, PI3K γ (Homo sapiens, UniProt P48736); assay: PI 3-Kinase HTRF inhibition assay, PI3K γ; details: in vitro
T4 construct: purchased Upstate

[1] = in vitro, read-out: PI3K α IC50
[2] = in vitro, read-out: PI3K δ IC50

T4 sequence (P48736 whole entry): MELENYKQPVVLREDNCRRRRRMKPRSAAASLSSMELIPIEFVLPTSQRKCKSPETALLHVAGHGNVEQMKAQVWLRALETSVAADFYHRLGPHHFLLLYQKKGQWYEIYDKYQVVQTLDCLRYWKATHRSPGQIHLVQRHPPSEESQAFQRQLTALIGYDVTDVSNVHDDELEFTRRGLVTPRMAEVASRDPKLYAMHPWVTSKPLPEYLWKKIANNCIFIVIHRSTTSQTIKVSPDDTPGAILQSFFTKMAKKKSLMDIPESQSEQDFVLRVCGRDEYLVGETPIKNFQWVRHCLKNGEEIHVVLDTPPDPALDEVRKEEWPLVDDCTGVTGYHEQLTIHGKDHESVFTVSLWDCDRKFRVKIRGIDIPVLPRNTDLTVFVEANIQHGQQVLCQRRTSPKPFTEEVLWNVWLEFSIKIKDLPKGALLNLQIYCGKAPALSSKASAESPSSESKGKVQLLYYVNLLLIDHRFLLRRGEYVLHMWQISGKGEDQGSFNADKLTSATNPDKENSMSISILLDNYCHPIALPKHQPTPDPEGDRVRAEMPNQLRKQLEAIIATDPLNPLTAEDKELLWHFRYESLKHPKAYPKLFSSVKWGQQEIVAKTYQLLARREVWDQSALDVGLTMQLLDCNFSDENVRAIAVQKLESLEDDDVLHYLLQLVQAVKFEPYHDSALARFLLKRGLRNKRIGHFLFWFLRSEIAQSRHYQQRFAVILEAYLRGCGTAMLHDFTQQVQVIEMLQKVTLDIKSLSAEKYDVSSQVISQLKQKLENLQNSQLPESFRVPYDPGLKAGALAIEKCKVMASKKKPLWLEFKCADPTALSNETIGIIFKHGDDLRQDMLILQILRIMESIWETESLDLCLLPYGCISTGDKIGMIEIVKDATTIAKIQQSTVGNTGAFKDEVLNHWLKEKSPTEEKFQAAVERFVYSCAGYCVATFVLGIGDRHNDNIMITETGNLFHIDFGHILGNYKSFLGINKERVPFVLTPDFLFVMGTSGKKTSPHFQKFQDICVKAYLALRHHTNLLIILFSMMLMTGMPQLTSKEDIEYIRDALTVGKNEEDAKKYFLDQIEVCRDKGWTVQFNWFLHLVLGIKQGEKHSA
T1 sequence (P42336 whole entry): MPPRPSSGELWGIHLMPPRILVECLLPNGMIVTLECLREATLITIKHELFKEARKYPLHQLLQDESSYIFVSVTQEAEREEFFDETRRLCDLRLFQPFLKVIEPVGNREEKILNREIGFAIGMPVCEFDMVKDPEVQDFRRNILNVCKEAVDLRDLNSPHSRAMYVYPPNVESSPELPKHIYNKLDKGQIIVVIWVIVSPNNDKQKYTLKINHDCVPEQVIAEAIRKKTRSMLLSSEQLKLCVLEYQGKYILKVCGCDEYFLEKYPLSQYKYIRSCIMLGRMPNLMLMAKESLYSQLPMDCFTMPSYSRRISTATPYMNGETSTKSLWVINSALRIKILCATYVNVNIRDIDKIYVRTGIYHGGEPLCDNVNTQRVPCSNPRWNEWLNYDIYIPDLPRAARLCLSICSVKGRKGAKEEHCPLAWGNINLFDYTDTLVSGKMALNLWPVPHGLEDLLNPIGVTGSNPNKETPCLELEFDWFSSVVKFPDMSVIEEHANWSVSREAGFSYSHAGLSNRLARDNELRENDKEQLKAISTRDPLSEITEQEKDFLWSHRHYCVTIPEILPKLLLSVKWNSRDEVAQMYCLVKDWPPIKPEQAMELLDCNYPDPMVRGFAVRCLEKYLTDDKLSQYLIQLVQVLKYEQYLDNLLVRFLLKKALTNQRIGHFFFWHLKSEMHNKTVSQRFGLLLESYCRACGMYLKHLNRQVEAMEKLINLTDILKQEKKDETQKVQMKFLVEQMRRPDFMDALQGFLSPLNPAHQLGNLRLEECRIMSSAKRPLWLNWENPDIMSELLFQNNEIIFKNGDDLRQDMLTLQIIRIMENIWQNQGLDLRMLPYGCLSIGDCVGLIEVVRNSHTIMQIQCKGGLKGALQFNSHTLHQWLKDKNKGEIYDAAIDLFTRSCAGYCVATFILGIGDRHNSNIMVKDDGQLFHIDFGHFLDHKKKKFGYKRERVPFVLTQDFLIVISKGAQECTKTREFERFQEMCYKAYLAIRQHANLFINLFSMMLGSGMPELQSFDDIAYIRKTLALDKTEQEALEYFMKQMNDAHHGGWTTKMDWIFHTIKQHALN
T1 sequence (P27986 whole entry partner): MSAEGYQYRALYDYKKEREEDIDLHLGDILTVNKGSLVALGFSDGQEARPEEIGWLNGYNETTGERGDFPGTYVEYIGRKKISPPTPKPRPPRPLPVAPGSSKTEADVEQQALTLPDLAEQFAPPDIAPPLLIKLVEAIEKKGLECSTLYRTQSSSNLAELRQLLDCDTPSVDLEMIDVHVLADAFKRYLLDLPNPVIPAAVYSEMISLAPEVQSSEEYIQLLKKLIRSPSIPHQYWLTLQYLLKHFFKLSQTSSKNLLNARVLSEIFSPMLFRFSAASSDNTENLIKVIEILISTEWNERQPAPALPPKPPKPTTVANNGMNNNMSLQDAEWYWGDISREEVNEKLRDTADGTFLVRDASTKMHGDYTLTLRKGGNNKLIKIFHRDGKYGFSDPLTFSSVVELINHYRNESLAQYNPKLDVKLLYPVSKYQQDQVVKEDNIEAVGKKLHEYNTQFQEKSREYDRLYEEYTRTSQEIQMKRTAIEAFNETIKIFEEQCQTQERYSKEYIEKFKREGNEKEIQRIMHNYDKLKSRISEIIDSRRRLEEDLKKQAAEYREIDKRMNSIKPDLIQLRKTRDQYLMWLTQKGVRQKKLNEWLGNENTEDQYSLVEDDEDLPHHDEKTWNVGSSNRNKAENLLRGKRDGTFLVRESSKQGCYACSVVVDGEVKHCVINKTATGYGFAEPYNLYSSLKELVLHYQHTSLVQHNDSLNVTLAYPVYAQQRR
T3 sequence (O00329 whole entry): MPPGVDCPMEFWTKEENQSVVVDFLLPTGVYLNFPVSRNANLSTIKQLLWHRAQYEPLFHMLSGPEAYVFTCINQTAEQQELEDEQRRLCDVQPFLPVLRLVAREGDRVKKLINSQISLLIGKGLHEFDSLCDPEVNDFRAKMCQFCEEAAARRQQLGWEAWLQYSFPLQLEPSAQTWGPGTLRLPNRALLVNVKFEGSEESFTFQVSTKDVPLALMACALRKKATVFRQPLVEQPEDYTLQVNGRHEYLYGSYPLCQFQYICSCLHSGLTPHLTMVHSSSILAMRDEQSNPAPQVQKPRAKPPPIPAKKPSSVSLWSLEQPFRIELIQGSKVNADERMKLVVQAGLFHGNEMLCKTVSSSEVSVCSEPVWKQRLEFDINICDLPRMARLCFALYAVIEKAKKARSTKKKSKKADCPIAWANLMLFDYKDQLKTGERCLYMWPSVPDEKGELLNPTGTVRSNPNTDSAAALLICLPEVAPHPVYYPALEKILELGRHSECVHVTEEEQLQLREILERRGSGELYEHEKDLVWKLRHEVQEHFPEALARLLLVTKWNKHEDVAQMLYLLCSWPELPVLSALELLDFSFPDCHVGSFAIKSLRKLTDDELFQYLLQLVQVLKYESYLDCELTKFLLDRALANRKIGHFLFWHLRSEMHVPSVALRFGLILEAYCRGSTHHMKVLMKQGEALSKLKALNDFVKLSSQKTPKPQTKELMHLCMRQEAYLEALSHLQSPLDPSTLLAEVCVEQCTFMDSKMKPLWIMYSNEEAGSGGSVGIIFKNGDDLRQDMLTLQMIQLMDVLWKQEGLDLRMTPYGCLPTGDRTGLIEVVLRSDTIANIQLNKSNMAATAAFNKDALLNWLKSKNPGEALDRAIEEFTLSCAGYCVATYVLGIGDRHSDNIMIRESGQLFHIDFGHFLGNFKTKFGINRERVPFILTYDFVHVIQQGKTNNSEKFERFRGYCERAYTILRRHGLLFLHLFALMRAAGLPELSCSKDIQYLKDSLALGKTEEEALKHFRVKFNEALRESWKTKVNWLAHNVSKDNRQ
T3 sequence (P27986 whole entry partner): as the sequence (P27986 whole entry partner) above
T2 sequence (P42338 whole entry): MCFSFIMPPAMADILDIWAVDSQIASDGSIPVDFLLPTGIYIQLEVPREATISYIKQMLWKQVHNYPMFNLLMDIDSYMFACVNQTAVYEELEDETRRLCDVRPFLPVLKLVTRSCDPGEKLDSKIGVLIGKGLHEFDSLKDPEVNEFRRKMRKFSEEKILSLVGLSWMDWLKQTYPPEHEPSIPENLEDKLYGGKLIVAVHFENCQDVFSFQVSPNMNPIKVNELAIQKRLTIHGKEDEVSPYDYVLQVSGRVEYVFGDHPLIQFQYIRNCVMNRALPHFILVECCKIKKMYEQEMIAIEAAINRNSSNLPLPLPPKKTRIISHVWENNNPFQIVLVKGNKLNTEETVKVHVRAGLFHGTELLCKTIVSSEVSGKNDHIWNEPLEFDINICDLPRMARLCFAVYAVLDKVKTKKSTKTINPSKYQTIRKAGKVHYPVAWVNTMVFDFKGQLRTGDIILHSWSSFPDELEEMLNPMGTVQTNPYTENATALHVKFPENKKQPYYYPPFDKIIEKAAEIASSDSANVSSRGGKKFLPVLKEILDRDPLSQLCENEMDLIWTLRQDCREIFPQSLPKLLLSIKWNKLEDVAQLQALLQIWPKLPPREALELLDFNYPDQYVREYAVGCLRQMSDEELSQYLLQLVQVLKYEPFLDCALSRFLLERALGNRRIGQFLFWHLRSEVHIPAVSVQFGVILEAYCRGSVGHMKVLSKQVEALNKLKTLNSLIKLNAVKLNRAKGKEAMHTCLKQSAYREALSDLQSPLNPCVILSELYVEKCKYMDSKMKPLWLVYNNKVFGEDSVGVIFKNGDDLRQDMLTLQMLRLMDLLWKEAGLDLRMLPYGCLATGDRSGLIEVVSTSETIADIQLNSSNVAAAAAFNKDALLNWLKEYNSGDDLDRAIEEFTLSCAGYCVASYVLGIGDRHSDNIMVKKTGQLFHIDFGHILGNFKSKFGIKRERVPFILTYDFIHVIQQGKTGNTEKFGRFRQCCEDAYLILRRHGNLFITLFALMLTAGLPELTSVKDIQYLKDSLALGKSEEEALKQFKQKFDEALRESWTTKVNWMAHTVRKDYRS
T2 sequence (P27986 whole entry partner): as the sequence (P27986 whole entry partner) above

| Compound | IC50 (PI3K α; [1]) | IC50 (PI3K β) | IC50 (PI3K δ; [2]) | IC50 (PI3K γ) | IC50 (PI3K δ) | IC50 (PI3K α) |
| --- | --- | --- | --- | --- | --- | --- |
| Nc1nc2cc(-c3ccc4ncc(N5CCNC(=O)C5)nc4n3)ccc2o1 [Compound 29] | < 0.1 µM | < 1 µM | < 10 µM | < 0.1 µM | – | – |
| Nc1nc2cc(-c3ccc4ncc(N5CCOCC5)cc4n3)ccc2o1 [Compound 22] | < 0.1 µM | < 1 µM | > 10 µM | < 0.1 µM | – | – |
| C[C@@H]1COCCN1C1CN(c2cnc3ccc(-c4ccc5oc(N)nc5c4)nc3c2)C1 [Compound 66] | < 0.1 µM | < 10 µM | < 1 µM | < 0.1 µM | – | – |
| NCC(=O)N1CCN(c2cnc3ccc(-c4ccc5oc(N)nc5c4)nc3c2)CC1 [Compound 37] | < 0.1 µM | < 1 µM | < 1 µM | < 1 µM | – | – |
| Nc1nc2cc(-c3cnc4ccc(N5CCOCC5)nc4c3)ccc2o1 [Compound 73, 5-(6-morpholino-1,5-naphthyridin-3-yl)benzo[d]oxazol-2-amine] | < 10 µM | > 10 µM | > 10 µM | < 10 µM | – | – |
| CC(C)N1CCN(C2CN(c3cnc4ccc(-c5ccc6nc(N)[nH]c6c5)nc4c3)C2)CC1 [Compound 85] | < 0.1 µM | > 10 µM | > 10 µM | > 10 µM | – | – |
| Nc1nc2cc(-c3ccc4ncc(C5=CCOCC5)nc4n3)ccc2o1 [Compound 11] | < 0.1 µM | < 10 µM | > 10 µM | < 0.1 µM | – | – |
| Nc1nc2cc(-c3ccc4ncc(N5CCC(O)CC5)cc4n3)ccc2o1 [Compound 62] | < 0.1 µM | < 10 µM | < 10 µM | < 1 µM | – | – |
| C[C@H]1CN(C2CN(c3cnc4ccc(-c5ccc6oc(N)nc6c5)nc4c3)C2)CCN1C [Compound 55] | < 0.1 µM | < 10 µM | < 1 µM | < 10 µM | – | – |
| CN1CCN(C2CN(c3cnc4ccc(-c5ccc6nc(N)[nH]c6c5)nc4c3)C2)CC1 [Compound 88] | < 0.1 µM | > 10 µM | > 10 µM | > 10 µM | – | – |
| CN1CCN(C2CN(c3cnc4ccc(-c5ccc6oc(N)nc6c5)nc4c3)C2)CC1=O [Compound 64] | < 0.1 µM | < 10 µM | < 1 µM | < 0.1 µM | – | – |
| C[C@H]1CN(c2cnc3ccc(-c4ccc5oc(N)nc5c4)nc3c2)CCN1 [Compound 47] | < 0.1 µM | < 0.1 µM | < 10 µM | < 1 µM | – | – |
| CC(C)(N)C(=O)N1CCN(c2ccc3ncc(-c4ccc5oc(N)nc5c4)cc3n2)CC1 [Compound 82] | < 10 µM | > 10 µM | > 10 µM | < 10 µM | – | – |
| C[C@@H]1CN(C2CN(c3cnc4ccc(-c5ccc6oc(N)nc6c5)nc4c3)C2)CCN1C [Compound 57] | < 0.1 µM | < 10 µM | < 1 µM | < 10 µM | – | – |
| CN1CCN(C2CN(c3cnc4ccc(-c5ccc6oc(N)nc6c5)nc4c3)C2)CC1(C)C [Compound 83] | < 0.1 µM | < 1 µM | < 0.1 µM | < 1 µM | – | – |
| C[C@H](N)C(=O)N1CCN(c2cnc3ccc(-c4ccc5oc(N)nc5c4)nc3c2)CC1 [Compound 38] | < 0.1 µM | < 1 µM | < 1 µM | < 1 µM | – | – |
| C[C@@H]1CN(C2CN(c3cnc4ccc(-c5ccc6oc(N)nc6c5)nc4c3)C2)CCN1 [Compound 56] | < 0.1 µM | < 10 µM | < 1 µM | < 1 µM | – | – |
| CCOC(=O)N1CC=C(c2cnc3ccc(-c4ccc5oc(N)nc5c4)nc3n2)CC1 [Compound 9] | < 0.1 µM | < 10 µM | < 10 µM | < 0.1 µM | – | – |
| Nc1nc2cc(-c3ccc4ncc(N5CC(N6C7CCC6COC7)C5)cc4n3)ccc2o1 [Compound 67] | < 0.1 µM | > 10 µM | – | < 1 µM | < 10 µM | – |
| Nc1nc2cc(-c3cnc4ccc(N5C6CCC5COC6)nc4c3)ccc2o1 [Compound 81] | – | > 10 µM | > 10 µM | < 10 µM | – | < 10 µM |
| Nc1nc2cc(-c3ccc4ncc(N5CC6CCC(C5)O6)cc4n3)ccc2o1 [Compound 59] | < 0.1 µM | > 10 µM | > 10 µM | < 0.1 µM | – | – |
| CN1CCN(c2cnc3ccc(-c4ccc5oc(N)nc5c4)nc3c2)CC1 [Compound 24] | < 0.1 µM | < 0.1 µM | < 10 µM | < 1 µM | – | – |
| C[C@H]1CN(C2CN(c3cnc4ccc(-c5ccc6nc(N)[nH]c6c5)nc4c3)C2)CCN1C [Compound 89] | < 0.1 µM | > 10 µM | > 10 µM | > 10 µM | – | – |
| C[C@H]1CN(C2CN(c3cnc4ccc(-c5ccc6oc(N)nc6c5)nc4c3)C2)CCN1 [Compound 54] | < 0.1 µM | < 10 µM | < 1 µM | < 10 µM | – | – |

The next lines start with results.

| IC50 (PI3K α; [1]) | IC50 (PI3K β) | IC50 (PI3K δ; [2]) | IC50 (PI3K γ) | Compound | IC50 (PI3K δ) | IC50 (PI3K α) |
| --- | --- | --- | --- | --- | --- | --- |
| < 0.1 µM | < 10 µM | < 10 µM | < 1 µM | C[C@@H](N)C(=O)N1CCN(c2cnc3ccc(-c4ccc5oc(N)nc5c4)nc3n2)CC1 [Compound 31] | – | – |
| < 10 µM | > 10 µM | > 10 µM | < 10 µM | C[C@@H]1COCCN1C1CN(c2cnc3ccc(-c4ccc5oc(N)nc5c4)nc3n2)C1 [Compound 49] | – | – |
| < 0.1 µM | > 10 µM | > 10 µM | < 0.1 µM | Nc1nc2cc(-c3ccc4ncc(N5CCC(F)(F)CC5)nc4n3)ccc2o1 [Compound 13] | – | – |
| < 1 µM | > 10 µM | > 10 µM | < 10 µM | CC1CN(C2CN(c3cnc4ccc(-c5ccc6oc(N)nc6c5)nc4n3)C2)CCO1 (stereo not shown) [Compound 18] | – | – |
| < 1 µM | > 10 µM | > 10 µM | > 10 µM | Nc1nc2cc(-c3ccc4ncc(N5CC(N6CCNCC6)C5)nc4n3)ccc2o1 [Compound 34] | – | – |
| < 0.1 µM | < 1 µM | < 1 µM | < 1 µM | CCOC(=O)N1CCN(c2cnc3ccc(-c4ccc5oc(N)nc5c4)nc3n2)CC1 [Compound 6] | – | – |
| < 0.1 µM | < 10 µM | < 1 µM | < 1 µM | Nc1nc2cc(-c3ccc4ncc(N5CC(N6CCN(CCO)CC6)C5)cc4n3)ccc2o1 [Compound 65] | – | – |
| < 0.1 µM | < 10 µM | < 10 µM | < 10 µM | Cc1nccn1C1CN(c2cnc3ccc(-c4ccc5oc(N)nc5c4)nc3n2)C1 [Compound 50] | – | – |
| < 0.1 µM | < 1 µM | < 1 µM | < 10 µM | CCN1CCN(C2CN(c3cnc4ccc(-c5ccc6oc(N)nc6c5)nc4c3)C2)CC1 [Compound 75] | – | – |
| < 0.1 µM | < 10 µM | < 10 µM | < 10 µM | CCN1CCN(C2CN(c3cnc4ccc(-c5ccc6oc(N)nc6c5)nc4n3)C2)CC1 [Compound 76] | – | – |
| < 0.1 µM | > 10 µM | > 10 µM | < 1 µM | Nc1nc2cc(-c3ccc4ncc(N5CC6CCC(C5)O6)nc4n3)ccc2o1 [Compound 28] | – | – |
| < 1 µM | > 10 µM | > 10 µM | < 10 µM | Nc1nc2cc(-c3ccc4ncc(N5CC(N6CC7CCC(C6)O7)C5)nc4n3)ccc2o1 [Compound 20] | – | – |
| < 10 µM | > 10 µM | > 10 µM | > 10 µM | CC(C)N1CCN(C2CN(c3cnc4ccc(-c5ccc6oc(N)nc6c5)nc4n3)C2)CC1 [Compound 77] | – | – |
| < 0.1 µM | < 10 µM | < 10 µM | < 10 µM | Nc1nc2cc(-c3ccc4ncc(N5CC(N6CCN(C7CC7)CC6)C5)nc4n3)ccc2o1 [Compound 69] | – | – |
| < 0.1 µM | > 10 µM | < 10 µM | < 10 µM | C[C@H]1CN(C2CN(c3cnc4ccc(-c5ccc6oc(N)nc6c5)nc4n3)C2)CCN1 [Compound 10] | – | – |
| < 0.1 µM | > 10 µM | < 10 µM | > 10 µM | C[C@@H]1CN(C2CN(c3cnc4ccc(-c5ccc6oc(N)nc6c5)nc4n3)C2)CCN1 [Compound 12] | – | – |
| < 0.1 µM | < 10 µM | < 10 µM | < 10 µM | CC(C)(N)C(=O)N1CCN(c2cnc3ccc(-c4ccc5oc(N)nc5c4)nc3n2)CC1 [Compound 40] | – | – |
| < 0.1 µM | < 10 µM | < 10 µM | < 10 µM | Nc1nc2cc(-c3ccc4ncc(N5CC(N6CCN(CCO)CC6)C5)nc4n3)ccc2o1 [Compound 46] | – | – |
| < 0.1 µM | < 0.1 µM | < 0.1 µM | < 0.1 µM | C[C@H](N)C(=O)N1CCN(c2cnc3ccc(-c4ccc5oc(N)nc5c4)nc3n2)CC1 [Compound 30] | – | – |
